Several values for one entry are separate records, joined by “and”; a condition that tells them apart may be missing. Equal entries are not always repeated.
Tests used:
[1] = tested on: GL261 murine brain tumor cells; assay: GL261 potentially lethal damage repair (PLDR); type: cell-based
Description: PLDR was also measured using the 10% survival level in both control and Tetrac treated-cells, and was also done for both exponentially growing and plateau phase cells. The total 10% survival dose was given, and then cells were placed back into the 37° C. incubator for various periods of time. At 0, 0.5, 1.0, 1.5, 2.0, 3.0, 4.0, 6.0, 8.0, and 10.0 hours, flasks were removed, and processed for survival assessment.
To investigate the effects of tetrac on SLDR and PLDR, cells were chosen that had been given a one-hour treatment with tetrac at two different times, i.e., at 70 and 270 hours post-seeding).

[2] = tested on: GL261 murine brain tumor cells; assay: GL261 growth curve, cell volumes/areas and colony forming efficiency; type: cell-based
Description: 1×10^5 cells per 25 cm^2 flask at time zero (density 40 cells/mm^2). Three flasks were utilized at each time period. The medium in the flasks was not changed over the duration of the growth curve (unfed cultures). Data were taken daily from day zero to day 11.5 post-seeding and cell numbers, age distributions, and apoptotic percentages were determined. After growth curve shapes (without and with 2 μM tetrac) were determined, irradiation times at 70 and 270 hour post-seeding were chosen.
To obtain exponential and plateau phase cell numbers, we trypsinized ([…] trypsin-EDTA) cells for 5 min at 37° C.
For determination of CCDTs, the cell numbers per flask were determined on a daily basis. A four-day interval in the exponential region of growth to obtain the CCDTs, yielding a total of 12 estimations for analysis was utilized. A regression analysis was performed using the (log) of the cell number versus the linear time in days (SigmaPlot, V. 10, Systat Software, Inc., Point Richmond, Calif.). The log slope value and its standard error (SE) were determined, and the SE was converted to the 95% confidence limits using a two-tailed t-table at N−1 degrees of freedom where N is the number of samples. (See Goldstein, A. In: Biostatistics, New York, The MacMillan Co., 1964, p. 140-146).

Solubility = type: physicochemical
Description: Yield: 50%; off-white solid; recrist. solvent.: EtOH; TLC: Rf=0.43 (EtOAc/EtOH 9/1); RPTLC: Rf=0.43 (AcOH/H2O 8/2); mp=136° C.; IR (υ cm^−1): 1730 (CO); ^1H NMR (DMSO-d 6) δ (ppm): 7.79 (s, 2H, ArH), 7.14 (s, 2H, ArH), 4.06-4.02 (m, 2H, CH2), 3.93-3.89 (q, J=7.0 Hz, 2H, CH2), 3.59-3.56 (t, J=7.0 Hz, 1H, CH), 2.80-2.77 (m, 2H, CH2), 1.88 (br, 1H, NH), 1.41-1.39 (t, J=7.0 Hz, 3H, CH3), 1.15-1.12 (t, J=7.0 Hz, 3H, CH3); MS (ESI+) m/z 911.7[(M+DMSO)^+, 100], 833.7 [(M+H)+, 75]; Anal. Calcd. for C19H19I4NO4: C, 27.40; H, 2.30; N, 1.68. Found: C, 27.54; H, 1.94; N, 1.66. Solubility 10^−3M in water after preparing a solution at 10^−1M in DMSO.
When looking at the amorphous state, the solid was not stable and quickly returned to the crystal state. Thus, Tetrac was used as a salt with Na^+ as the counterion which reduced the use of DMSO to 10%. Then all analogs were solubilized with 10% DMSO in water for the TiPS protected analogs and in PBS for the others.

With `O=C(O)Cc1cc(I)c(Oc2cc(I)c(O)c(I)c2)c(I)c1` [Tetrac, tetraiodothyroacetic acid] the “factor of inhibition of PLDR” value ([1]; exponential cells) was 1.9, the “factor of decrease of PLDR expression” value ([1]; plateau phase cells) was 3.4 and the “decrease of final saturation density” value ([2]; 2 μM Tetrac) was “about 50%”. The “saturation density of control relative to tetrac-treated cells” value ([2]; 2 μM Tetrac) was “approximately 2.4 times”, the “cell culture doubling time, Tetrac-treated GL261 cells” value ([2]; 2 μM Tetrac, exponential growth) was 43.8 ± 3.8 h and 43.8 h and the “onset of exponential growth” value ([2]; 2 μM Tetrac, control 20 hours) was “about 40 hours”. The “Mean nuclear area (μm^2)” value ([2]; Exponential Cells (+Tetrac)) was 1180 μm^2, the “Median Volume (μm^3)” value ([2]; Exponential Cells (+Tetrac)) was 3850 μm^3 and the “Median cell area (μm^2)” value ([2]; Exponential Cells (+Tetrac)) was 2814 μm^2. For the same molecule, the “nuclear/cell area (%)” value ([2]; Exponential Cells (+Tetrac)) was 42%, the “Mean nuclear area (μm^2)” value ([2]; Plateau phase Cells (+Tetrac)) was 310 μm^2 and the “Median Volume (μm^3)” value ([2]; Plateau phase Cells (+Tetrac)) was 2780 μm^3. For the same molecule, the “Median cell area (μm^2)” value ([2]; Plateau phase Cells (+Tetrac)) was 700 μm^2, the “nuclear/cell area (%)” value ([2]; Plateau phase Cells (+Tetrac)) was 44% and the “CFE (%)” value ([2]; Plateau phase Cells (+Tetrac), with feeder cells) was 8.8%. The “cell size relative to control GL261 cells” value ([2]; exponential phase) was 1.4 times, the “cell size relative to control GL261 cells” value ([2]; plateau phase) was 1.9 times and the solubility in water (Solubility) was “difficult to solubilize in water”.

— patent US9839614B2, “Nanoparticle and polymer formulations for thyroid hormone analogs, antagonists, and formulations and uses thereof” (NANOPHARMACEUTICALS LLC, priority 2009, dated 2017)
